Experimental data taken from patent publication US20230407243A1, “GENETIC PLATFORM TO INVESTIGATE THE FUNCTIONS OF BACTERIAL DRUG EFFLUX PUMPS” (priority 2022, published 2023).
Read-outs that look alike come from different tables or passages of the source.

Columns and labels:
Type in all cases: cell-based, Escherichia coli
EKO-35-Pore = assay: MIC susceptibility profiling, porinated strain; details: for Fold changes of MICs: EKO-35-Pore compared to EKO-35-Pore (reference); for MIC: Escherichia coli
Procedure, shortened: (§1)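 E. coli strains carrying a genomically integrated constitutive fhuA ΔC/Δ4L pore were grown 18 h in LB at 37 °C, then diluted 1/2000 in MHB II from OD600 ~1.0. Compounds were tested in duplicate, 2-fold serial titration, for 18 h at 37 °C with shaking. MIC came from OD600 with the pre-incubation background subtracted.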

EKO-35 araC::mdtEF Pore = assay: MIC susceptibility profiling, porinated efflux platform; details: for Fold changes of MICs: EKO-35 araC::mdtEF Pore compared to EKO-35-Pore
Procedure, shortened: as §1

EKO-35 araC::acrB Pore = assay: as above; details: for Fold changes of MICs: EKO-35 araC::acr-B Pore compared to EKO-35-Pore
Procedure, shortened: as §1

EKO-35 araC::mdtBC Pore = assay: as above; details: for Fold changes of MICs: EKO-35 araC::mdtBC Pore compared to EKO-35-Pore
Procedure, shortened: as §1

EKO-35 araC::acrD Pore = assay: as above; details: for Fold changes of MICs: EKO-35 araC::acrD Pore compared to EKO-35-Pore
Procedure, shortened: as §1

[1] = system: EKO-35 araC::acrBD408A Pore; assay: as above; details: for Fold changes of MICs: EKO-35 araC::acrBD408A Pore compared to EKO-35-Pore
Procedure, shortened: as §1

EKO-35 araC::mexCD Pore = assay: as above; details: for Fold changes of MICs: EKO-35 araC::mexCD Pore compared to EKO-35-Pore
Procedure, shortened: as §1

EKO-35 araC::macAB Pore = assay: as above; details: for Fold changes of MICs: EKO-35 araC::macAB Pore compared to EKO-35-Pore
Procedure, shortened: as §1

EKO-35 araC::acrEF Pore = assay: as above; details: for Fold changes of MICs: EKO-35 araC::acrEF Pore compared to EKO-35-Pore
Procedure, shortened: as §1

EKO-35 araC::emrKY Pore = assay: as above; details: for Fold changes of MICs: EKO-35 araC::emrKY Pore compared to EKO-35-Pore
Procedure, shortened: as §1

EKO-35 araC::emrAB Pore = assay: as above; details: for Fold changes of MICs: EKO-35 araC::emrAB Pore compared to EKO-35-Pore
Procedure, shortened: as §1

wild-type (WT) K-12-Pore = assay: microbe, parasite or virus in culture; details: technical duplicate; for MIC: Escherichia coli
Procedure, shortened: as §1

ΔtolC-Pore = assay: microbe, parasite or virus in culture; details: for Minimum inhibitory concentration (MIC), Pore ΔtolC: Table 10, with pore
Procedure, shortened: as §1

EKO-35 araC::mdtBC = assay: MIC susceptibility profiling, efflux platform; details: for Fold change of MICs: EKO-35 araC::mdtBC compared to EKO-35
Procedure, shortened: (§2)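 Overnight LB cultures were grown at 37 °C with aeration, then washed into PBS, pH 7.4, to OD600 ~1.0. A 1/2000 dilution in MHB II was exposed to compound dilution series for 18 h at 37 °C. The MIC was taken from corrected OD600.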

EKO-35 araC::acrEF = assay: MIC susceptibility profiling, efflux platform; details: for Fold change of MICs: EKO-35 araC::acrEF compared to EKO-35
Procedure, shortened: as §2

EKO-35 araC::acrBD408A = assay: MIC susceptibility profiling, efflux platform; details: for Fold change of MICs: EKO-35 araC::acrBD408A compared to EKO-35
Procedure, shortened: as §2

E. coli ΔtolC = assay: microbe, parasite or virus in culture; details: for Minimum inhibitory concentration (MIC), ΔtolC: Table 10, without pore
Procedure, shortened: as §2

E. coli EKO-35 = assay: microbe, parasite or virus in culture; details: for Fold change of MICs: EKO-35 compared to EKO-35 (reference); for MIC: Escherichia coli, EKO35
Procedure, shortened: as §2

[2] = system: wild-type E. coli K-12 str. BW25113; assay: microbe, parasite or virus in culture; details: technical duplicate; for MIC: Escherichia coli, BW25113
Procedure, shortened: as §2

[3] = Table 14A, porinated, technical duplicate
[4] = Table 13B, non-porinated, technical duplicate
[5] = Table 13A, non-porinated, technical duplicate

O=C(N[C@H](CO)[C@H](O)c1ccc([N+](=O)[O-])cc1)C(Cl)Cl [chloramphenicol]
Fold changes of MICs (EKO-35-Pore): 1 fold
MIC (EKO-35-Pore; read-out: Minimum inhibitory concentration (MIC), Pore EKO-35): 0.781 µg/mL
MIC (EKO-35-Pore; Table 14A, porinated, technical duplicate, read-out: Minimum inhibitory concentration, EKO-35-Pore): 0.781 µg/mL
Fold changes of MICs (EKO-35 araC::mdtEF Pore): 1 fold
MIC (EKO-35 araC::mdtEF Pore; Escherichia coli, Table 14A, porinated, technical duplicate, read-out: Minimum inhibitory concentration, EKO-35 araC::mdtEF Pore): 0.781 µg/mL
Fold changes of MICs (EKO-35 araC::acrB Pore): 4 fold
Fold changes of MICs (EKO-35 araC::mdtBC Pore): 1 fold
MIC (EKO-35 araC::mdtBC Pore; Escherichia coli, EKO-35 araC::mdtBC Pore, technical duplicate, read-out: Minimum inhibitory concentration): 0.781 µg/mL
Fold changes of MICs (EKO-35 araC::acrD Pore): 1 fold
MIC (EKO-35 araC::acrD Pore; Escherichia coli, Table 14A, porinated, technical duplicate, read-out: Minimum inhibitory concentration, EKO-35 araC::acrD Pore): 0.781 µg/mL
Fold changes of MICs [1]: 1 fold
MIC ([1]; Escherichia coli, EKO-35 araC::acrBD408A Pore, technical duplicate, read-out: Minimum inhibitory concentration): 0.781 µg/mL
Fold changes of MICs (EKO-35 araC::mexCD Pore): 1 fold
MIC (EKO-35 araC::mexCD Pore; Escherichia coli, EKO-35 araC::mexCD Pore, technical duplicate, read-out: Minimum inhibitory concentration): 0.781 µg/mL
Fold changes of MICs (EKO-35 araC::macAB Pore): 1 fold
MIC (EKO-35 araC::macAB Pore; Escherichia coli, EKO-35 araC::macAB Pore, technical duplicate, read-out: Minimum inhibitory concentration): 0.781 µg/mL
Fold changes of MICs (EKO-35 araC::acrEF Pore): 1 fold
MIC (EKO-35 araC::acrEF Pore; Escherichia coli, Table 14A, porinated, technical duplicate, read-out: Minimum inhibitory concentration, EKO-35 araC::acrEF Pore): 0.781 µg/mL
Fold changes of MICs (EKO-35 araC::emrKY Pore): 1 fold
MIC (EKO-35 araC::emrKY Pore; Escherichia coli, EKO-35 araC::emrKY Pore, technical duplicate, read-out: Minimum inhibitory concentration): 0.391 µg/mL
Fold changes of MICs (EKO-35 araC::emrAB Pore): 1 fold
MIC (EKO-35 araC::emrAB Pore; Escherichia coli, EKO-35 araC::emrAB Pore, technical duplicate, read-out: Minimum inhibitory concentration): 0.781 µg/mL
MIC (wild-type (WT) K-12-Pore; Table 10, with pore, read-out: Minimum inhibitory concentration (MIC), Pore K-12): 3.12 µg/mL
MIC (wild-type (WT) K-12-Pore; Table 14A, porinated, read-out: Minimum inhibitory concentration, K-12 (WT)-Pore): 3.12 µg/mL
MIC (ΔtolC-Pore; Escherichia coli, 18 h, read-out: Minimum inhibitory concentration, ΔtolC-Pore): 0.781 µg/mL
Minimum inhibitory concentration (MIC), Pore ΔtolC (ΔtolC-Pore; technical duplicate): 0.781 µg/mL
Fold change of MICs (EKO-35 araC::mdtBC): 1 fold
MIC (EKO-35 araC::mdtBC; Escherichia coli, Table 13B, non-porinated, technical duplicate, read-out: Minimum Inhibitory Concentration, EKO-35 araC::mdtBC): 0.781 µg/mL
Fold change of MICs (EKO-35 araC::acrEF): 2 fold
MIC (EKO-35 araC::acrEF; Escherichia coli, Table 13A, non-porinated, technical duplicate, read-out: Minimum Inhibitory Concentration, EKO-35 araC::acrEF): 1.56 µg/mL
Fold change of MICs (EKO-35 araC::acrBD408A): 1 fold
MIC (EKO-35 araC::acrBD408A; Escherichia coli, Table 13B, non-porinated, technical duplicate, read-out: Minimum Inhibitory Concentration, EKO-35 araC::acrBD408A): 0.781 µg/mL
MIC (E. coli ΔtolC; Escherichia coli, 18 h, read-out: Minimum Inhibitory Concentration, ΔtolC): 1.56 µg/mL
Minimum inhibitory concentration (MIC), ΔtolC (E. coli ΔtolC; technical duplicate): 1.563 µg/mL
Fold change of MICs (E. coli EKO-35): 1 fold
MIC (E. coli EKO-35; Table 10, without pore, technical duplicate, read-out: Minimum inhibitory concentration (MIC), EKO-35): 0.781 µg/mL
MIC (E. coli EKO-35; Table 13A, non-porinated, technical duplicate, read-out: Minimum Inhibitory Concentration, EKO-35): 0.781 µg/mL
MIC ([2]; Table 10, without pore, read-out: Minimum inhibitory concentration (MIC), K-12): 6.5 µg/mL
MIC ([2]; Table 13A, non-porinated, read-out: Minimum Inhibitory Concentration, K-12): 6.25 µg/mL

N#CC(=NNc1cccc(C(F)(F)F)c1)C(=O)c1ccsc1 [compound 3]
Fold changes of MICs (EKO-35-Pore): 1 fold
Minimum inhibitory concentration (MIC), Pore EKO-35 (EKO-35-Pore; Table 10, with pore, technical duplicate): 320 µg/mL
Minimum inhibitory concentration, EKO-35-Pore (EKO-35-Pore; [3]): 320 µg/mL
Fold changes of MICs (EKO-35 araC::mdtEF Pore): 1 fold
Minimum inhibitory concentration, EKO-35 araC::mdtEF Pore (EKO-35 araC::mdtEF Pore; [3]): 320 µg/mL
Fold changes of MICs (EKO-35 araC::acrB Pore): 1 fold
Minimum inhibitory concentration, EKO-35 araC::acrB Pore (EKO-35 araC::acrB Pore; [3]): 320 µg/mL
Fold changes of MICs (EKO-35 araC::mdtBC Pore): 1 fold
Minimum inhibitory concentration (EKO-35 araC::mdtBC Pore; EKO-35 araC::mdtBC Pore, technical duplicate): 320 µg/mL
Fold changes of MICs (EKO-35 araC::acrD Pore): 1 fold
Minimum inhibitory concentration, EKO-35 araC::acrD Pore (EKO-35 araC::acrD Pore; [3]): 320 µg/mL
Fold changes of MICs [1]: 1 fold
Minimum inhibitory concentration ([1]; EKO-35 araC::acrBD408A Pore, technical duplicate): 320 µg/mL
Fold changes of MICs (EKO-35 araC::mexCD Pore): 1 fold
Minimum inhibitory concentration (EKO-35 araC::mexCD Pore; EKO-35 araC::mexCD Pore, technical duplicate): 320 µg/mL
Fold changes of MICs (EKO-35 araC::macAB Pore): 1 fold
Minimum inhibitory concentration (EKO-35 araC::macAB Pore; EKO-35 araC::macAB Pore, technical duplicate): 320 µg/mL
Fold changes of MICs (EKO-35 araC::acrEF Pore): 1 fold
Minimum inhibitory concentration, EKO-35 araC::acrEF Pore (EKO-35 araC::acrEF Pore; [3]): 320 µg/mL
Fold changes of MICs (EKO-35 araC::emrKY Pore): 1 fold
Minimum inhibitory concentration (EKO-35 araC::emrKY Pore; EKO-35 araC::emrKY Pore, technical duplicate): 320 µg/mL
Fold changes of MICs (EKO-35 araC::emrAB Pore): 1 fold
Minimum inhibitory concentration (EKO-35 araC::emrAB Pore; EKO-35 araC::emrAB Pore, technical duplicate): 320 µg/mL
Minimum inhibitory concentration (MIC), Pore K-12 (wild-type (WT) K-12-Pore; Table 10, with pore): 320 µg/mL
Minimum inhibitory concentration, K-12 (WT)-Pore (wild-type (WT) K-12-Pore; Table 14A, porinated): 320 µg/mL
Minimum inhibitory concentration (MIC), Pore ΔtolC (ΔtolC-Pore; technical duplicate): 1.25 µg/mL
Minimum inhibitory concentration, ΔtolC-Pore (ΔtolC-Pore; [3]): 1.25 µg/mL
Fold change of MICs (EKO-35 araC::mdtBC): 1 fold
Minimum Inhibitory Concentration, EKO-35 araC::mdtBC (EKO-35 araC::mdtBC; [4]): 320 µg/mL
Fold change of MICs (EKO-35 araC::acrEF): 1 fold
Minimum Inhibitory Concentration, EKO-35 araC::acrEF (EKO-35 araC::acrEF; [5]): 320 µg/mL
Fold change of MICs (EKO-35 araC::acrBD408A): 1 fold
Minimum Inhibitory Concentration, EKO-35 araC::acrBD408A (EKO-35 araC::acrBD408A; [4]): 320 µg/mL
Minimum inhibitory concentration (MIC), ΔtolC (E. coli ΔtolC; technical duplicate): 2.5 µg/mL
Minimum Inhibitory Concentration, ΔtolC (E. coli ΔtolC; [5]): 2.5 µg/mL
Fold change of MICs (E. coli EKO-35): 1 fold
Minimum inhibitory concentration (MIC), EKO-35 (E. coli EKO-35; Table 10, without pore, technical duplicate): 320 µg/mL
Minimum Inhibitory Concentration, EKO-35 (E. coli EKO-35; [5]): 320 µg/mL
Minimum inhibitory concentration (MIC), K-12 ([2]; Table 10, without pore): 320 µg/mL
Minimum Inhibitory Concentration, K-12 ([2]; Table 13A, non-porinated): 320 µg/mL
